Tests used:
[1] = pretreatment with 325 mg aspirin for 4 days; Sheikh et al., Clin Ther. 2013; cited from earlier work
[2] = Example 2: flushing assessment in crossover study, VTS-72 vs Tecfidera; format: in vivo, human; conditions: Example 2 conclusion, co-administration of aspirin
Procedure: This was a single center, pilot, comparative bioavailability, open-label, randomized, single-dose, 2-period, 2-sequence, crossover study under fasting conditions. A total of 12 healthy adult male or female volunteers were included in this pilot study. For each period, subjects were confined from at least 10 hours before dosing until 12 hours post-dose. There was a washout of 7 days or more between doses. The washout period could be increased for logistical considerations. Participation of each subject in this study lasted approximately 9 days. Subjects were administered each treatment according to the 2-period, 2-sequence, block randomization scheme.
Treatment A: Subjects were required not to wear dentures or to remove their tongue piercing at the time of dosing. The delayed-release capsules were placed on the subject's tongue. Subjects were instructed to suck the delayed-release capsule until the acetylsalicylic acid coating was dissolved or up to a maximum of 1 minute after the delayed-release capsule had been placed on the subject's tongue. […]
Flushing (including redness, warmth, tingling, and itchiness of the skin) was assessed at 0.5, 1, 1.5, 2, 2.5, 3, 3.5, and 4 hours post-dose using the question and the rating scale presented in Section—Flushing Assessment below. […] Flushing symptoms were recorded as adverse events.
Flushing was assessed using the question below. […]

[3] = Example 3: flushing side effect, VTS-72 (205 mg DMF) vs Tecfidera; format: in vivo, human; conditions: Example 3, co-administration of aspirin
Procedure: Flushing (including redness, warmth, tingling, and itchiness of the skin) was assessed at 0.5, 1, 1.5, 2, 2.5, 3, 3.5, and 4 hours post-dose using the question and the rating scale presented in Section—Flushing Assessment below. Half grades were not assigned. Flushing symptoms were recorded as adverse events.
Flushing was assessed using the question below. The question was asked by the clinical staff: • Question 1: Overall, at this moment, how would you rate your flushing symptoms (including redness, warmth, tingling, and itchiness of the skin)? Score from 0 to 10 (none 0, mild 1 to 3, moderate 4 to 6, severe 7 to 9, extreme 10).
16 healthy individuals were enrolled for this study.

[4] = Example 2: comparative bioavailability, monomethyl fumarate plasma pharmacokinetics; format: in vivo, human; conditions: normalized to 180 mg DMF
Procedure: The delayed-release capsules were placed on the subject's tongue. Subjects were instructed to suck the delayed-release capsule until the acetylsalicylic acid coating was dissolved or up to a maximum of 1 minute after the delayed-release capsule had been placed on the subject's tongue. The delayed-release capsule should not be chewed, bitten, or swallowed during that 1-minute period or until the coating is dissolved; only the saliva could be swallowed. The subject was instructed to give a hand sign once the acetylsalicylic acid coating was dissolved (the capsule should feel and taste different). […]

[5] = Example 1: flush rating (Global Flush Severity Scale) after DMF without aspirin, with swallowed aspirin or with intraoral aspirin; format: in vivo, human; conditions: MS patients
Procedure: Seven human patients with multiple sclerosis who were already taking dimethyl fumarate and had experienced flushing side effects from dimethyl fumarate were recruited for this study. […] In Period I, each patient was given their standard dose of 240 mg dimethyl fumarate orally. Each patient was asked to rate his or her flush on the Global Flush Severity Scale (GFSS) (see Paolini et al. Int. J. Clin. Pract. 62(6):896-904 (2008)), when the flush completely resolved. The Global Flushing Severity Score measures, overall, in the previous 24 hours, how each patient rates the flushing symptoms, including redness, warmth, tingling, and itchiness of the skin. […] After the flush completely resolved, then each patient recorded his or her GFSS flush rating. Not until at least two days later did Period III start. At Period III, each patient was asked to not swallow the orally administered aspirin (162 mg) but to allow the aspirin to be absorbed through the oral mucosa. The aspirin was in powdered form and the remaining aspirin in the mouth was washed out with water. Afterwards, 240 mg of dimethyl fumarate was swallowed with a glass of water. Still, the flush was rated (GFSS) after it was resolved.

In the case of CC(=O)Oc1ccccc1C(=O)O [aspirin, acetylsalicylic acid], the “effect of aspirin pretreatment on the pharmacokinetic profile of DMF” value [1] is listed as “did not affect”, the “reduction of the flushing side effect” value [2] is listed as “more than 35%” and the “reduction of the flushing side effect” value [3] is listed as “about 61%”. The “impact of co-administration of aspirin on the Cmax of DMF” value [4] was “did not have significant impact”, the “reduction of severity of flush (GFSS) as compared to Period I” value ([5]; Period II: 162 mg aspirin orally swallowed followed by 240 mg dimethyl fumarate) was 33% and the “reduction of severity of flush (GFSS) as compared to Period I” value ([5]; Period III: 162 mg aspirin absorbed through the oral mucosa, then 240 mg dimethyl fumarate) was 52%.
